Assay results taken from patent US8293513B2, “Histone deacetylase inhibitors” (Georgetown University, priority 2007, dated 2012).
Where two headings read alike, the source gives them in different places.

What was measured:
DU145 cells = test: Fluorescence imaging of compound localization in cells; format: cell-based, human; conditions: DU-145 cells, for 60 minutes (FIG. 2)
Protocol: (§1) Human prostate cancer cell lines PC-3 and DU145 cells were plated down onto glass slides at a density of 500,000 per slide and incubated overnight. […] The slides were then washed three times with phosphate-buffered saline. The cells were then fixed with a 4% solution of formaldehyde for ten minutes, washed four times with phosphate-buffered saline and mounted. For slides with nuclear staining, cells were treated with propidium iodide (1:1000) for 4 minutes after fixation, washed four times with PBS and mounted.
(§2) Propidium Iodide was imaged with an excitation wavelength of 535 and an emission wavelength of 617. Images were taken at 63×.

PC-3 cells [1] = test: as above; format: cell-based, human; conditions: 20 μM
Protocol: as §1, §2

HDAC6 = target: T1, HDAC6 (Homo sapiens, UniProt Q9UBN7); test: HDAC isoform inhibition assay (Fluor de Lys, purified protein); format: biochemical
T1 sequence (Q9UBN7 1-1215): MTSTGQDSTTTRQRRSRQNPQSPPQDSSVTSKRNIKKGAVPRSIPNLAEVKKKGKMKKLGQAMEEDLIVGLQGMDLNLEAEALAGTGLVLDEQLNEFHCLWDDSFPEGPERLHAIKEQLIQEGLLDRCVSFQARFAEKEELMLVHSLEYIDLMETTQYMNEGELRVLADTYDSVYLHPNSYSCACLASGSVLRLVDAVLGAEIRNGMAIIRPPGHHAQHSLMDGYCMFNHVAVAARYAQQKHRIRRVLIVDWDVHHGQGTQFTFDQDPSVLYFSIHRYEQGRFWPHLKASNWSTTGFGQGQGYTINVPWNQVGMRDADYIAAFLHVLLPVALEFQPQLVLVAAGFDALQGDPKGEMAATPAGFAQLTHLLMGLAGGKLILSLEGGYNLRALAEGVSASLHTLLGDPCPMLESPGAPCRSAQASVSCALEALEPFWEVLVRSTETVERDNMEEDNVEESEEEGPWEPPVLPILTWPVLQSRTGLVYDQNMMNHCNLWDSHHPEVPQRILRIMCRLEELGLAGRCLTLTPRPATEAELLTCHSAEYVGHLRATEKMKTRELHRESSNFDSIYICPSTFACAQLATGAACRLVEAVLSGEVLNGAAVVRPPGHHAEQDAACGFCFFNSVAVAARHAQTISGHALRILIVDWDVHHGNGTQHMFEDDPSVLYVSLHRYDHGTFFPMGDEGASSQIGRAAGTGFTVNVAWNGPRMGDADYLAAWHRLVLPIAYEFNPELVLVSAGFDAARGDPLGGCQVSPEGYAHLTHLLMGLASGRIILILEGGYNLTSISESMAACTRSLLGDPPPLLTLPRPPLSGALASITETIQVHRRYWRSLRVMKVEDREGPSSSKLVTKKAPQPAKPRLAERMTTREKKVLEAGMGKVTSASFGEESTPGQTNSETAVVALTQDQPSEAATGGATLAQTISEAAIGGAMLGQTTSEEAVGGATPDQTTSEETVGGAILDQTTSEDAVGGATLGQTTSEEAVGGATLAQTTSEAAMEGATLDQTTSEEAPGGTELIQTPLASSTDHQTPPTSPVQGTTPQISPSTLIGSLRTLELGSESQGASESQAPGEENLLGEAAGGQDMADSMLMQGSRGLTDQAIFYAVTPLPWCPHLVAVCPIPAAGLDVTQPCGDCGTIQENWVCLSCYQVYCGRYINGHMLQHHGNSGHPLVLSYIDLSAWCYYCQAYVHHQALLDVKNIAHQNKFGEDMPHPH

A549 (lung cancer) cells = test: Imaging of tubulin acetylation; format: cell-based; conditions: 20 μM, 60 minutes (FIG. 4), versus untreated control
Protocol: Images A, B, and C show the cells after treatment with the histone deacetylase inhibitor (20 μM) for 60 minutes. […] Image C is the DIC image, while image D is a merger of images A, B, and C.

[2] = Emission and excitation spectra; format: physicochemical
Protocol: Measurement of the emission and excitation spectra for the compound of Example 1 was performed to confirm the corresponding range for fluorescent visualization in cancer cells and to confirm the fluorescent property of the compound.

MCF7 (breast cancer) = test: Cell growth inhibition (CellTiter 96 AQueous One, MTS); format: cell-based; conditions: Homo sapiens; MCF7 cells, 48 hours; read-out: Proliferation IG50 MCF7
Protocol: (§3) The cell lines used were PC-3 (prostate cancer), C42 (androgen-independent prostate cancer), LNCap (androgen-dependent prostate cancer), SQ20B (squamous cell carcinoma), MCF7 (breast cancer) and MDA-231 (breast cancer).
(§4) Cells were seeded at 5,000 per well in […] of growing medium in 96-well tissue culture plates. At 24 hours after seeding, a solution of the compound or DMSO vehicle control were added to each well to a total volume of […] (three replicates per concentration), and incubated for 48 hours at 37° C. Growth inhibition was determined using CellTiter 96® AQueous One Solution Cell Proliferation according to manufacturer's instructions (Technical Bulletin: CellTiter 96® AQueous One Solution Cell Proliferation Assay. Instructions for Use of Products G3580, G3581 and G3582; Promega, Inc. Madison, Wis., Revised 4/2005), and the absorbance measured at 490 nm on a microplate reader. The CellTiter 96® AQueous One Solution Cell Proliferation Assay is a colorimetric method for determining the number of viable cells in proliferation, cytotoxicity or chemosensitivity assays and contains a tetrazolium compound [3-(4,5-dimethylthiazol-2-yl)-5-(3-carboxymethoxyphenyl)-2-(4-sulfophenyl)-2H-tetrazolium, inner salt; “MTS”] and an electron coupling reagent (phenazine ethosulfate; PES). The MTS tetrazolium compound (Owen's reagent) is bioreduced by cells into a colored formazan product that is soluble in tissue culture medium. Assays are performed by adding a small amount of the CellTiter 96® AQueous One Solution Reagent directly to culture wells, incubating for 1-4 hours and then recording the absorbance at 490 nm with a 96-well plate reader. The quantity of formazan product as measured by the absorbance at 490 nm is directly proportional to the number of living cells in culture.
(§5) The 50% growth inhibition (IG50) was calculated as the compound concentration required to reduce cell number by 50% compared with control.

[3] = tested on: LNCap (androgen-dependent prostate cancer); test: as above; format: cell-based; conditions: Homo sapiens; LNCap cells, 48 hours; read-out: Proliferation IG50 LNCap
Protocol: as §3, §4, §5

[4] = tested on: SQ20B (squamous cell carcinoma); test: as above; format: cell-based; conditions: Homo sapiens; SQ20B cells, 48 hours; read-out: Proliferation IG50 SQ20B
Protocol: as §3, §4, §5

[5] = tested on: C42 (androgen-independent prostate cancer); test: as above; format: cell-based; conditions: C4-2; C42 cells, 48 hours; read-out: Proliferation IG50 C42
Protocol: as §3, §4, §5

PC-3 (prostate cancer) = test: as above; format: cell-based; conditions: Homo sapiens, PC3 cells, 48 hours, read-out: Proliferation IG50 PC3
Protocol: as §3, §4, §5

MDA-231 (breast cancer) = test: as above; format: cell-based; conditions: Homo sapiens, MDA-MB-231; MDA-231 cells, 48 hours; read-out: Proliferation IG50 MDA-231
Protocol: as §3, §4, §5

HDAC3 = HDAC3 (Homo sapiens, UniProt O15379); test: HDAC isoform inhibition assay (Fluor de Lys, purified protein); format: biochemical
LNCap cells = test: Cell cycle distribution (propidium iodide, FACS); format: cell-based; conditions: 24 hours after adding the compound
Protocol: (§6) LNCap and PC-3 cells were incubated in the presence or absence of compound. The cells were harvested at the indicated time points after addition of compound then washed twice with cold phosphate-buffered saline. Cells (1-2×10^6) were resuspended in 0.5 ml of ice-cold phosphate-buffered saline, and single cell suspension was verified microscopically. The cell suspension was gradually mixed with ice-cold absolute ethanol to the final volume of 2.0 ml, and cooled on ice at least for 20 min before staining with propidium iodide. The cell cycle distributions were measured in a fluorescence-activated cell sorter from Becton Dickinson. DNA content was quantified using ModFit LT 3.0 software (Verity Software House, Inc.).

PC-3 cells [6] = test: Cell cycle distribution (propidium iodide, FACS); format: cell-based; conditions: PC-3, 24 hours after adding the compound
Protocol: as §6

[7] = target: HeLa nuclear extracts (histone deacetylase); format: biochemical; conditions: pan-HDAC inhibition assay
Protocol: Reactions were stopped after 15 min with Fluor de Lys Developer. […] The reaction was performed in triplicate for each sample. Each point represents the mean±SD of replicates.

HDAC8 = target: T2, HDAC8 (Homo sapiens, UniProt Q9BY41); test: biochemical
T2 sequence (Q9BY41 1-377): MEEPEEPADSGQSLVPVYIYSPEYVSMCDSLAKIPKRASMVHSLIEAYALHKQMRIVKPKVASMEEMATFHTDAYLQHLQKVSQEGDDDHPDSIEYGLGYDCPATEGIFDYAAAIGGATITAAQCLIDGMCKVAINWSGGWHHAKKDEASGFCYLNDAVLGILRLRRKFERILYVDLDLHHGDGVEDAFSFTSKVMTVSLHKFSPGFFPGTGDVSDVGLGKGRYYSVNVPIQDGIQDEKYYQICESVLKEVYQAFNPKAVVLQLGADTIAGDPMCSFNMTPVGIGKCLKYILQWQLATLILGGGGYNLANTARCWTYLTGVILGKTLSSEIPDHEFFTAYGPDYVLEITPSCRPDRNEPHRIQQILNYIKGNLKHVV

A549 cells = test: Imaging of histone acetylation; format: cell-based; conditions: 20 μM, 60 minutes (FIG. 5), versus untreated control
Protocol: Images A, B, C and D show the cells after treatment with the histone deacetylase inhibitor (20 μM) for 60 minutes. […] Image C is the DIC image.

HDAC1 = HDAC1 (Homo sapiens, UniProt Q13547); test: HDAC isoform inhibition assay (Fluor de Lys, purified protein); format: biochemical
HDAC2 = HDAC2 (Homo sapiens, UniProt Q92769); test: as above; format: biochemical
HDAC4 = HDAC4 (Homo sapiens, UniProt P56524); conditions: PC3 cells, 1 μM, 24 hours (FIG. 6)
Protocol: Human prostate cancer PC3 cells were cultured in Dulbecco's Modified Eagle's Medium (DMEM) with 5% serum at 37° C. over night. […] Control cells were incubated in the absence of test compound.
After 24 hours, the cells were washed with phosphate-buffered saline (1×) one time, and fixed with 4% percent of paraformaldehyde for 15 min. Non specific binding was blocked with 10% normal goat serum in phosphate-buffered saline containing 0.2% tween-20 (sigma aldrich P7949) for 1 hour. Cells were treated with mouse monoclonal anti-HDAC4 antibody (Sigma Aldrich H0163) 1:200 dilution in 5% goat serum in PBS for 1 hour at room temperature. The cells were washed three times with phosphate buffered saline (1×). […] The cells were washed with phosphate-buffered saline (1×) three times. Vecta shield mounting medium for florescence with DIPA (Vector laboratory H-1200) were loaded on the cells and covered with cover glass. The cells were then treated with HDAC4 antibody to visualize HDAC4 and with 4′,6-diamidino-2-phenylindole (DAPI) to visualize the nuclei.
Fluorescence microscopy was used to observe the immunohistostaining results.

[8] = HeLa nuclear extracts (Table 2), read-out: HDAC IC50
[9] = HeLa nuclear extracts (Table 3), read-out: pan-HDAC IC50

Sequence of HDAC3 (O15379 whole entry, species assumed, canonical isoform): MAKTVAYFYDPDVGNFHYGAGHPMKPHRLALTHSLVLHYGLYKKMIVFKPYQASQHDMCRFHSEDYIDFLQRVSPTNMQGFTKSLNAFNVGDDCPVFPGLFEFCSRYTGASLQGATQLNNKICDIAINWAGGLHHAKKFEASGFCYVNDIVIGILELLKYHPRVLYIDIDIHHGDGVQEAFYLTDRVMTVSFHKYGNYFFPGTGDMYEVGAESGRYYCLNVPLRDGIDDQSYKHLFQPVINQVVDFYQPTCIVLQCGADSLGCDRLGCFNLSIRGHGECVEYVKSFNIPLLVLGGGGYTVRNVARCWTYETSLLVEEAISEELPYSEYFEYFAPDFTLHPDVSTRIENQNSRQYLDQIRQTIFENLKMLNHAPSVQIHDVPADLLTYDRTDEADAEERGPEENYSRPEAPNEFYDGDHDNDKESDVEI
Sequence of HDAC3 (O75376 395-489 partner limits assumed, species assumed): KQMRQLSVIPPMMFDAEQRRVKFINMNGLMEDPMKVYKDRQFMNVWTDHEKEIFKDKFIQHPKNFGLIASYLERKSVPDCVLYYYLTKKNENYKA
Sequence of HDAC1 (Q13547 whole entry, species assumed, canonical isoform): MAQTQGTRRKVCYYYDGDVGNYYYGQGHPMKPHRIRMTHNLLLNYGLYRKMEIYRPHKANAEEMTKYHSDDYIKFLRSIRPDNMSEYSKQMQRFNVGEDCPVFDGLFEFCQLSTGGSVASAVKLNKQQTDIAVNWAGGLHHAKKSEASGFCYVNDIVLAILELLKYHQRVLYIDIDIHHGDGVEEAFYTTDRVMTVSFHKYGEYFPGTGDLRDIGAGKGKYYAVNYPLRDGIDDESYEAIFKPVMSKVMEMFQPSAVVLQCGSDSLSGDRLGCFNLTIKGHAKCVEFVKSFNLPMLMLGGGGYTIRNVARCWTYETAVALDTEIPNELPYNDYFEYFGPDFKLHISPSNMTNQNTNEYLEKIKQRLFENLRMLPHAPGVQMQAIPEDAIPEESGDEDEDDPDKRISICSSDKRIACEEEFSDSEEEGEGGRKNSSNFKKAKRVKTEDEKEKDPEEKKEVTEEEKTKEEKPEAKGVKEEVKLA
Sequence of HDAC2 (Q92769 whole entry, species assumed): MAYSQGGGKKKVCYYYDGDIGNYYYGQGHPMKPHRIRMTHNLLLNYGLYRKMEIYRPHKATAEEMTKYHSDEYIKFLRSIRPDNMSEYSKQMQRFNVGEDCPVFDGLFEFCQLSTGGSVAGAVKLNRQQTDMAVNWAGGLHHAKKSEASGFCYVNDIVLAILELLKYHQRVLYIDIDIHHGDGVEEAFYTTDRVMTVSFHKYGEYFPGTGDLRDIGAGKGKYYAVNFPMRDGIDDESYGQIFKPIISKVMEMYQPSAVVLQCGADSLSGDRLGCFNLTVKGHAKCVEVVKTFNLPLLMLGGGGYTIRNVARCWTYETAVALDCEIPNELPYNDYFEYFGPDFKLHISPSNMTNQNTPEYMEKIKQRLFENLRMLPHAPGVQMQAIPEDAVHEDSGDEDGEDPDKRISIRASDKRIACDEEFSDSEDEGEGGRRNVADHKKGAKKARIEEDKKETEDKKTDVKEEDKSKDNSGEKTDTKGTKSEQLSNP
Sequence of HDAC4 (P56524 whole entry): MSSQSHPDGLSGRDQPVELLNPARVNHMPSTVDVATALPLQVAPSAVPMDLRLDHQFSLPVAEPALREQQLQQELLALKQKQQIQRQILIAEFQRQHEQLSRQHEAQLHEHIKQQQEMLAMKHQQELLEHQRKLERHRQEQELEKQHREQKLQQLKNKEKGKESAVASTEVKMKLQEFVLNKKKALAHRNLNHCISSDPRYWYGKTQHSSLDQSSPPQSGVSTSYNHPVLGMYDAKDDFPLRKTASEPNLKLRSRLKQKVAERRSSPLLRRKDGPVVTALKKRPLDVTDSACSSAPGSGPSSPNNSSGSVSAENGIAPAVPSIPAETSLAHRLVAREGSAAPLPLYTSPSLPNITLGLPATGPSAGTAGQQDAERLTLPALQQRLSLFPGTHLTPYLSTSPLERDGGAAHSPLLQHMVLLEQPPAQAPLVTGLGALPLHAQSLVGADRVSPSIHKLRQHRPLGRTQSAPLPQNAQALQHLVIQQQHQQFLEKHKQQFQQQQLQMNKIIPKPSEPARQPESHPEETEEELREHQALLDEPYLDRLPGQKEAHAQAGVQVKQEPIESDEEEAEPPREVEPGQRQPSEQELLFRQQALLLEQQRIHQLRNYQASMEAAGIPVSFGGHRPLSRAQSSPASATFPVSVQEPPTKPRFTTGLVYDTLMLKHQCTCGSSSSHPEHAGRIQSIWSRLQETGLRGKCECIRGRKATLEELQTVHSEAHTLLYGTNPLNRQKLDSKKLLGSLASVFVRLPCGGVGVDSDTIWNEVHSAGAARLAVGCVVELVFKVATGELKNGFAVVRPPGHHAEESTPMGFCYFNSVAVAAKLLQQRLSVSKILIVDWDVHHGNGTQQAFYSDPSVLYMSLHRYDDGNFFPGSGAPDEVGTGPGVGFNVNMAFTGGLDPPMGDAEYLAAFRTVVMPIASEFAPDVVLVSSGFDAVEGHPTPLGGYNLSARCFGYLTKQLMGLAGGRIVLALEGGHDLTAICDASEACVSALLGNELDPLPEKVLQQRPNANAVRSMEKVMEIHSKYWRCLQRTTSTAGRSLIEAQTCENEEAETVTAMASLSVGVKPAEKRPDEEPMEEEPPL

SMILES | IC50 (HDAC6) [nM] | IC50 (HDAC3) [µM] | Cell cycle distribution G1 (PC-3 cells [6]) [%] | Cell cycle distribution G2 (PC-3 cells [6]) [%] | Cell cycle distribution S (PC-3 cells [6]) [%] | IC50 [7, 8] [nM] | IC50 [7, 9] [nM] | IC50 (HDAC1) [nM] | IC50 (HDAC2) [µM] | further results
CN(C)c1cccc2c(S(=O)(=O)NCCCCCC(=O)NO)cccc12 [Example 1, 6-(5-(Dimethylamino)naphthalene-1-sulfonamido)-N-hydroxyhexanamide] | 129 | 1.12 | 64.35 | 15.74 | 19.91 | 125 | 125 | 956 | 1.38 | Localization of compound fluorescence in cells (DU145 cells): seen fluorescing (green fluorescence) in the cytoplasm; Co-localization with nuclei stained with propidium iodide (PC-3 cells [1]; PC3 cells, 60 min (FIG. 3)): does not localize to nuclei; Localization of compound fluorescence in cells (PC-3 cells [1]; PC-3 cells, 60 minutes (FIG. 2)): present in the cytoplasm but not the nucleus of cells; Tubulin acetylation in the cytoplasm (A549 (lung cancer) cells): increased tubulin acetylation; Emiss (emission wavelength) [2]: 500 nm; Exc (excitation wavelength) [2]: 320 nm; IC50 (MCF7 (breast cancer)): 9.2 nM; IC50 [3]: 1.22 nM; IC50 [4]: 6.42 nM; IC50 [5]: 1.91 nM; IC50 (PC-3 (prostate cancer)): 1.54 nM; IC50 (MDA-231 (breast cancer)): 12.2 nM; Cell cycle distribution G1 (LNCap cells): 85.23%; Cell cycle distribution G2 (LNCap cells): 5.59%; Cell cycle distribution S (LNCap cells): 9.18%; IC50 (HDAC8): 2900 nM; Histone acetylation in the nucleus (A549 cells): increased nuclear histone acetylation
CN(C)c1cccc2c(S(=O)(=O)NCCCCC(=O)NO)cccc12 [Example 2] | – | – | – | – | – | 287 | – | – | – | –
CN(C)c1cccc2c(S(=O)(=O)NCCCCCCC(=O)NO)cccc12 [Example 3] | 76.2 | 4.89 | – | – | – | 116 | 116 | 1290 | 7.4 | –
CN(C)c1cccc2c(S(=O)(=O)NCCCCCCCC(=O)NO)cccc12 [Example 4] | – | – | – | – | – | 208 | – | – | – | –
O=C(CCCCCCC(=O)Nc1ccccc1)NO [SAHA, suberoylanilide hydroxamic acid, reference compound] | – | – | 72.28 | 13.39 | 14.33 | – | – | – | – | HDAC4 distribution between cytoplasm and nuclei (HDAC4): traps HDAC4 in the cytoplasm of the cells
